Data as given in patent publication US20240018129A1, “COMPOUNDS AS PU. 1 INHIBITORS” (PEKING UNIVERSITY, priority 2020, published 2024).

Legend:
PU.1 = biological target: T1, PU.1 (Mus musculus, UniProt P17433); assay: q-PCR of TIM-3 expression in Blast-PU.1 cells (PU.1 inhibition potency); format: cell-based
T1 construct: EGFP (from 'PU.1-EGFP-vector'); expressed in transfected cells
Excerpt: An acute T cell lymphoblastic leukemia (T-ALL) disease model was used to evaluate the effect of the newly synthesized compounds on PU.1 inhibition. Pten, a famous tumor suppressor gene, was […] deleted in mouse hematopoietic stem cells and their differentiated progeny, and this would eventually lead to a progressive T-ALL in about two months from born. It is believed that immune checkpoint T cell immunoglobulin mucin-3 (TIM-3), a surface marker for the isolation of pure leukemia-initiating cells (LICs), is transcriptionally regulated by transcription factor PU.1 in the Pten-null T-ALL model. Therefore, the expression level of TIM-3 was detected and quantified to characterize the inhibition potency of the compounds after 24 h treatment of graded concentrations of compounds. Blast cells were transfected with either PU.1-EGFP-vector or EGFP-vector to yield stable cell lines blast-PU.1 and blast-EGFP, respectively. These cell lines were used for compound testing in vitro. Compounds DB1976 and DB2115 were tested as well for comparison. Blast-PU.1 and blast-EGFP are the ideal cell lines for compounds testing in vitro, since they are T-ALL blast cells with […] TIM-3 and PU.1 expression level.

[1] = system: bleomycin-induced skin fibrosis; assay: bleomycin-induced skin fibrosis, preventive and therapeutic models; format: in vivo, mouse
Experimental: Methods: To evaluate the preventive and therapeutic effects of compound I-1 on skin fibrosis, bleomycin was used to establish two animal models of skin fibrosis with different drug intervention (6-8 weeks, C57BL/6, male). Skin fibrosis was induced by local injection of bleomycin (0.5 mg/mL, 0.1 ml/mouse) in a skin defined area (˜1 cm^2), where the hair was removed in advance, at the upper back every other day. Subcutaneous saline injections served as controls. (I) Preventive model of bleomycin-induced skin fibrosis: Compound I-1, positive control DB1976, or vehicle (saline) were injected i.p. simultaneously with bleomycin for 4 weeks (FIG. 3a). (II) Therapeutic model of bleomycin-induced skin fibrosis: Mice were pre-charged with bleomycin for 3 weeks to induce skin fibrosis, then treated with compound I-1, positive control DB1976, or vehicle (saline) for another 3 weeks, total time is 6 weeks after the first bleomycin treatment (FIG. 30. After the last day of treatment of both models, mice were fasted overnight and euthanized. Part of the skin was fixed with paraformaldehyde after fully flat on a foil, embedded with paraffin, and then sliced for H&E, Sirius red and Masson staining to check pathological features. The epidermal thickness of each sample was calculated quantitatively with image J. Another part of skin was collected and stored at −80° C. after liquid nitrogen quick-freezing, RNA isolation (Code.R6934, OMEGA, USA), first cDNA reverse (Code.AT341, TransGen, China), SYBR mix (Code.AQ601, TransGen, China) for Q-PCR (LightCycler® 96, Roche) to verify several fibrosis-related genes mRNA level, such as, Col1a1 and Col1a2.

[2] = system: HFD/CCL4-induced NASH and liver fibrosis; assay: High-fat diet (HFD) combined with CCl4 (lower dose)-induced NASH model; format: in vivo, mouse
Excerpt: (§1) Methods: To evaluate the potential therapeutic effects of compound I-1 on liver disorders, including liver fat steatosis and accumulation, nonalcoholic fatty liver disease (NAFLD), nonalcoholic steatosis hepatitis (NASH), and liver fibrosis, three mice models (C57BL/6, male, 8 weeks old) were used. (I) NASH diet (Code.TD.160785, ENVIGO, USA)-induced NASH model: All mice were fed with NASH diet for 10 weeks. Mice were then randomly distributed into three groups, and each group was assigned to be injected daily with vehicle, compound I-1 (2.5mpk or 5mpk, i.p.), or DB1976 (2.5mpk, i.p, as a positive control) for another 6 weeks on continuous NASH diet. A group with normal regular diet was treated with vehicle as health control. (II) High-fat diet (HFD) combinate with CCl4 (lower dose)—induced NASH model. Mice were fed with normal regular diet or HFD (kcal fat 60%—D12492, research diets) for 10 weeks, then the HFD mice were divided into two groups randomly based on the rule of minimum weight differences. Each group was assigned to be injected with CCl4 (25% v/v in olive oil, 0.5 mL/kg body weight) or pure olive oil (i.p.) twice a week for 4 weeks. Compound 1-1 or vehicle (saline) were injected (i.p.) once daily for 4 weeks at the same time with CCl4 under continuous HFD. (III) CCl4 (higher dose)—induced liver fibrosis model. Liver fibrosis was induced by CCl4 injection (20% v/v in olive oil, 10 mL/kg body weight) twice a week for 6 weeks, compound I-1 or vehicle are also injected (i.p.) once daily for 6 weeks at the same time with CCl4 application. Ail the mice in the above-mentioned three models were observed daily. After the last day of treatment of all the models, mice were fasted overnight and euthanized. Serum was collected after centrifuging of the whole blood at 4 degrees, and blood biochemistry parameters were tested through automatic biochemical instrument (BS-240VET, Mindray). Part of liver tissues were fixed with paraformaldehyde, embedded with paraffin, and then sliced for H&E or Sirius red staining to check pathological features, and NAFLD scores. Kleiner, D. E. et al. Hepatology 41, 1313-1321, doi:10.1002/hep.20701 (2005). Part of liver tissues were used fresh, embedded in optimum cutting temperature compound, and sectioned. The sections were stained with 0.5% oil red 0 according to standard procedures after fixed in 4% paraformaldehyde in PBS. Another part of liver tissues were collected and stored in −80° C. after liquid nitrogen quick-freezing, RNA. isolation (Code.R6934, OMEGA., USA), first cDNA reverse (Code.AT341, TransGen, China), SYBR mix (Code.AQ601, TransGen, China) for Q-PCR (LightCycler®96, Roche) to verify genes mRNA level, such as, fibrosis-related genes, Col1a1 and Col1a2; inflammation-related genes, IL-6 and IL-1β.

[3] = system: CCl4-induced liver fibrosis; assay: CCl4 (higher dose)-induced liver fibrosis model; format: in vivo, mouse; conditions: 5mpk or 10mpk i.p. once daily for 6 weeks
Excerpt: as §1, with “Kleiner, D. E. et al. Hepatology 41, 1313-1321, doi:10.1002/hep.20701 (2005). Part of liver tissues were used fresh, embedded in optimum cutting temperature compound, and sectioned. The sections were stained with 0.5% oil red 0 according to standard procedures after fixed in 4% paraformaldehyde in PBS. Another part of liver tissues were collected and stored in −80° C. after liquid nitrogen quick-freezing, RNA. isolation (Code.R6934, OMEGA., USA), first cDNA reverse (Code.AT341, TransGen, China), SYBR mix (Code.AQ601, TransGen, China) for Q-PCR (LightCycler®96, Roche) to verify genes mRNA level, such as, fibrosis-related genes, Col1a1 and Col1a2; inflammation-related genes, IL-6 and IL-1β.” left out

[4] = system: T-ALL blast cells and TIM-3-high LICs; assay: Pten-null T-ALL mouse model, compound I-1 and/or rapamycin treatment
Experimental: To generate a Pten-null T-ALL mouse model, Pten was 40% deleted in mouse fetal liver hematopoietic stem cells (HSCs), followed by PI3K-AKT pathway activation, hematopoietic disorder and T-ALL development. In the T-ALL crisis stage, T-ALL blasts and LICs would infiltrate mouse hematopoietic organs and non-hematopoietic organs.
After treatment, hematopoietic and non-hematopoietic organ morphology of the mice was analyzed using hematoxylin-eosin (H&E) staining.

[5] = preventive model, 5mpk i.p., 4 weeks

downregulated the expression level of TIM-3 (PU.1; 10 nM, 24 h treatment, Blast-PU.1 cell line, q-PCR): 40%
activity in terms of PU.1-mediated TIM-3 inhibition, compared among tested compounds (PU.1; Blast-PU.1 cells): best activity
SMILES: N=C(N)c1ccc2nc(-c3ccc(NC(=O)[C@@H]4CCCN4C(=O)[C@@H]4CCCN4C(=O)c4ccc(-c5nc6ccc(C(=N)N)cc6[nH]5)cc4)cc3)[nH]c2c1 [Compound I-1, (S)-1-((4-(6-carbamimidoyl-1H-benzo[d]imidazol-2-yl)benzoyl)-L-prolyl)-N-(4-(6-carbamimidoyl-1H-benzo[d]imidazol-2-yl)phenyl)pyrrolidine-2-carboxamide]
skin fibrosis progress ([1]; preventive model, 5mpk i.p. simultaneously with bleomycin for 4 weeks, vs bleomycin/vehicle): significantly prevented
collagen deposition [1, 5]: reducing
epidermal thickness [1, 5]: reducing
mRNA level of Col1a1 and Col1a2 ([1]; preventive model, 5mpk i.p., 4 weeks, skin): decreasing
bleomycin-induced skin fibrosis ([1]; therapeutic model, 3 weeks bleomycin then 3 weeks treatment, 5mpk): significantly alleviated and reversed
level of serum ALT ([2]; fasting serum): tendency to reduce
serum triglyceride (TG) and total-cholesterol (TC) ([2]; fasting serum, i.p. once daily for 4 weeks): reduced
body weight, gWAT and iWAT weight radio increased by HFD/CCL4 ([2]; i.p. once daily for 4 weeks with CCl4 under HFD): reversed
reducing fat accumulation (H&E staining, liver steatosis score) ([2]; liver): not efficacious
reducing inflammatory response (inflammatory infiltrates, inflammation score, liver mRNA of IL-1β and IL-6) ([2]; liver): efficacious
collagen deposition (sirius red staining) and liver mRNA level of Col1a1 and Col1a2 ([2]; mouse, in vivo): reduced
hepatotoxicity under its effective concentration ([2]; mouse, in vivo): not hepatotoxic
liver fibrosis induced by HFD/CCL4 application ([2]; mouse, in vivo): significantly alleviated
CCl4-induced liver fibrosis [3]: alleviated
collagen deposition and Sirius red-positive area [3]: significantly decreased
inordinate mRNA level and blood biochemistry induced by CCl4 application [3]: ameliorated
TIM-3 high LICs proportion ([4]; after two days' treatment, bone marrow, without treatment 33.5%): 6.15%
reduction of proportion of blasts (in words) ([4]; after two days' treatment, bone marrow, spleen and thymus): did not reduce
organ morphology (H&E staining) compared with T-ALL group ([4]; treated at blast crisis stage for one month, thymus and spleen): no significant changes
